Experimental data as given in ChEMBL document CHEMBL4507320, “Data for DCP probe NVS-MALT1” (2021).

Key:
[1] = molecular target: Ephrin type-A receptor 8 (Homo sapiens) (UniProt P29322); settings: Compound concentration 1000.0 nM
[2] = molecular target: Ephrin type-A receptor 6 (Homo sapiens) (UniProt Q9UF33); settings: Compound concentration 1000.0 nM
[3] = molecular target: cAMP-dependent protein kinase catalytic subunit beta (Homo sapiens) (UniProt P22694); settings: Compound concentration 1000.0 nM
[4] = molecular target: Inhibitor of nuclear factor kappa-B kinase subunit epsilon (Homo sapiens) (UniProt Q14164); settings: Compound concentration 1000.0 nM
[5] = molecular target: Phosphatidylinositol 4,5-bisphosphate 3-kinase catalytic subunit alpha isoform (Homo sapiens) (UniProt P42336); settings: Compound concentration 1000.0 nM
[6] = molecular target: Serine/threonine-protein kinase 26 (Homo sapiens) (UniProt Q9P289); settings: Compound concentration 1000.0 nM
[7] = test system: Receptor-type tyrosine-protein kinase FLT3 (Homo sapiens), P36888 [UNDEFINED MUTATION]; settings: Compound concentration 1000.0 nM
[8] = molecular target: Cyclin-G-associated kinase (Homo sapiens) (UniProt O14976); settings: Compound concentration 1000.0 nM
[9] = molecular target: MAP/microtubule affinity-regulating kinase 4 (Homo sapiens) (UniProt Q96L34); settings: Compound concentration 1000.0 nM
[10] = molecular target: STE20-like serine/threonine-protein kinase (Homo sapiens) (UniProt Q9H2G2); settings: Compound concentration 1000.0 nM
STE20-like serine/threonine-protein kinase (Homo sapiens), sequence (Q9H2G2 whole entry, looked up): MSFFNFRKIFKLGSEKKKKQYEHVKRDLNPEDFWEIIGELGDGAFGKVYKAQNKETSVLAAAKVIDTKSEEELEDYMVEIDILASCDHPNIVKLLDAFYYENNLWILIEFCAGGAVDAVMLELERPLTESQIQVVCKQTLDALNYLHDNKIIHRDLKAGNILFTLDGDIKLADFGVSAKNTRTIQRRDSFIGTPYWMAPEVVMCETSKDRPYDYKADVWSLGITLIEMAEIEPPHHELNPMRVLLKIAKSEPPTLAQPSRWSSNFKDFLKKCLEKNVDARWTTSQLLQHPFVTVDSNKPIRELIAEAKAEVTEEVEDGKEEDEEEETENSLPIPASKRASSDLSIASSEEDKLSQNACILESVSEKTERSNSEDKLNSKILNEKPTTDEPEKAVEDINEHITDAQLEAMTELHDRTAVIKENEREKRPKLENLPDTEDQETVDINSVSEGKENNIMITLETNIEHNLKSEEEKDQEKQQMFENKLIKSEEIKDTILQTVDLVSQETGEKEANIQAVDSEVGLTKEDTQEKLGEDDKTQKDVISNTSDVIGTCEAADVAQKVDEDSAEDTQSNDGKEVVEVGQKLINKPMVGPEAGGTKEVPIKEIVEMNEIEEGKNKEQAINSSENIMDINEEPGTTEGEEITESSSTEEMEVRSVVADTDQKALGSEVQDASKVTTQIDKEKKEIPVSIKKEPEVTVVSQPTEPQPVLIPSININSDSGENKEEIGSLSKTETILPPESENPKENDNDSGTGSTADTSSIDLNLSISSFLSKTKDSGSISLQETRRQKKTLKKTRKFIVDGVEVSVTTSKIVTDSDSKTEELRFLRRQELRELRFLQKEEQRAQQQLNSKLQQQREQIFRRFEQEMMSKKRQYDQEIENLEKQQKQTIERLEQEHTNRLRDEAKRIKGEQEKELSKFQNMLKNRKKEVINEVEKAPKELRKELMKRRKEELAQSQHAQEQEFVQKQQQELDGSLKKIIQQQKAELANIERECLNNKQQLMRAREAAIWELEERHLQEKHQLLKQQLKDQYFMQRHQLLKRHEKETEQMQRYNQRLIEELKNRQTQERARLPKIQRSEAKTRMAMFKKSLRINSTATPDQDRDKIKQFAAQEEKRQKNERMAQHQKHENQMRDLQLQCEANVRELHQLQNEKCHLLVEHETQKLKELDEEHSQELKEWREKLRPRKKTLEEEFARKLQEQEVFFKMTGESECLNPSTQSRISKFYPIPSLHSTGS

[11] = molecular target: Serine/threonine-protein kinase STK11 (Homo sapiens) (UniProt Q15831); settings: Compound concentration 1000.0 nM
Serine/threonine-protein kinase STK11 (Homo sapiens), sequence (Q15831 whole entry): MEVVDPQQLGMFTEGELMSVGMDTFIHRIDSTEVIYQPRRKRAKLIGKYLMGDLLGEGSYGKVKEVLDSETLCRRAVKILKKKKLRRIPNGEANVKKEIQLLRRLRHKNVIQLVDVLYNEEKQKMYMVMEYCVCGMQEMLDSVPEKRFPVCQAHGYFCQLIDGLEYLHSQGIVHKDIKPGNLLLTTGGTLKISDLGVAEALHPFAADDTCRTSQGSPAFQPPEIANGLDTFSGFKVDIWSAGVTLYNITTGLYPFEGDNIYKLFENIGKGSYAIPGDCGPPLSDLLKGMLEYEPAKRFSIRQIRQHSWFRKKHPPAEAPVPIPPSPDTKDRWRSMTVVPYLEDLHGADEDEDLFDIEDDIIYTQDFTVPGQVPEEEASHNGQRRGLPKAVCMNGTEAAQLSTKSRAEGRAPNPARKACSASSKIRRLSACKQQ

[12] = test system: Epidermal growth factor receptor (Homo sapiens), P00533 [G719C]; settings: Compound concentration 1000.0 nM
[13] = molecular target: Tyrosine-protein kinase ZAP-70 (Homo sapiens) (UniProt P43403); settings: Compound concentration 1000.0 nM
[14] = molecular target: Tyrosine-protein kinase receptor Tie-1 (Homo sapiens) (UniProt P35590); settings: Compound concentration 1000.0 nM
[15] = molecular target: Cyclin-dependent kinase 18 (Homo sapiens) (UniProt Q07002); settings: Compound concentration 1000.0 nM
[16] = molecular target: Activin receptor type-1 (Homo sapiens) (UniProt Q04771); settings: Compound concentration 1000.0 nM
[17] = molecular target: Serine/threonine-protein kinase 17A (Homo sapiens) (UniProt Q9UEE5); settings: Compound concentration 1000.0 nM
[18] = molecular target: 1-phosphatidylinositol 3-phosphate 5-kinase (Homo sapiens) (UniProt Q9Y2I7); settings: Compound concentration 1000.0 nM
[19] = molecular target: Phosphatidylinositol 4,5-bisphosphate 3-kinase catalytic subunit beta isoform (Homo sapiens) (UniProt P42338); settings: Compound concentration 1000.0 nM
[20] = molecular target: Testis-specific serine/threonine-protein kinase 3 (Homo sapiens) (UniProt Q96PN8); settings: Compound concentration 1000.0 nM
[21] = molecular target: 5-hydroxytryptamine receptor 1D (Homo sapiens) (UniProt P28221); settings: Compound concentration 10.0 uM
[22] = molecular target: Mitogen-activated protein kinase 6 (Homo sapiens) (UniProt Q16659); settings: Compound concentration 1000.0 nM
[23] = molecular target: NT-3 growth factor receptor (Homo sapiens) (UniProt Q16288); settings: Compound concentration 1000.0 nM
NT-3 growth factor receptor (Homo sapiens), sequence (Q16288 32-839 limits assumed): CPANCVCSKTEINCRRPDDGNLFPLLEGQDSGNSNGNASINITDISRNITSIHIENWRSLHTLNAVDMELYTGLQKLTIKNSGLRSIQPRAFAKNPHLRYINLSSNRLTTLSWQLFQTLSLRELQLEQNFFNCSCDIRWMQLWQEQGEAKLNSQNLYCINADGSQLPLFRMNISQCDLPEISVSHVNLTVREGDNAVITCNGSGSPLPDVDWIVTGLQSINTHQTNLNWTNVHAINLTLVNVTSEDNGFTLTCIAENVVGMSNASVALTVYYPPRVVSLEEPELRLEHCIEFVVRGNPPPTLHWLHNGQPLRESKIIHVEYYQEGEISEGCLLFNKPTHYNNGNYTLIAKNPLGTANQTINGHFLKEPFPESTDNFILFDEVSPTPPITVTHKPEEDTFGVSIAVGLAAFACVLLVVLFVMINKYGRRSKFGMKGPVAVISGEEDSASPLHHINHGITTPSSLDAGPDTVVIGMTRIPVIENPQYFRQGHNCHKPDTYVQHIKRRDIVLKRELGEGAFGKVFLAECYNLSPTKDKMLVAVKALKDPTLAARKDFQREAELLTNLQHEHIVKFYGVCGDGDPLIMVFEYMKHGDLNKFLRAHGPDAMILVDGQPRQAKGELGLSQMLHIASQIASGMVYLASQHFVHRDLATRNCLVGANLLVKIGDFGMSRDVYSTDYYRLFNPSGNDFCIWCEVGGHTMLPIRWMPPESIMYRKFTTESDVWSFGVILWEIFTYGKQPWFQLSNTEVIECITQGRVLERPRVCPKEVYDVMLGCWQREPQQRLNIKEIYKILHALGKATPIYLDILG

[24] = molecular target: Ribosomal protein S6 kinase alpha-2 (Homo sapiens) (UniProt Q15349); settings: Compound concentration 1000.0 nM
[25] = molecular target: Histamine H4 receptor (Homo sapiens) (UniProt Q9H3N8); settings: Compound concentration 10.0 uM
[26] = molecular target: Mitogen-activated protein kinase 8 (Homo sapiens) (UniProt P45983); settings: Compound concentration 1000.0 nM
[27] = molecular target: Focal adhesion kinase 1 (Homo sapiens) (UniProt Q05397); settings: Compound concentration 1000.0 nM
[28] = molecular target: Receptor-interacting serine/threonine-protein kinase 1 (Homo sapiens) (UniProt Q13546); settings: Compound concentration 1000.0 nM
[29] = molecular target: Membrane-associated tyrosine- and threonine-specific cdc2-inhibitory kinase (Homo sapiens) (UniProt Q99640); settings: Compound concentration 1000.0 nM
[30] = molecular target: 5'-AMP-activated protein kinase catalytic subunit alpha-2 (Homo sapiens) (UniProt P54646); settings: Compound concentration 1000.0 nM
[31] = molecular target: Ephrin type-A receptor 7 (Homo sapiens) (UniProt Q15375); settings: Compound concentration 1000.0 nM
[32] = molecular target: Fibroblast growth factor receptor 3 (Homo sapiens) (UniProt P22607); settings: Compound concentration 1000.0 nM
[33] = molecular target: Serine/threonine-protein kinase 32A (Homo sapiens) (UniProt Q8WU08); settings: Compound concentration 1000.0 nM
[34] = molecular target: Tyrosine-protein kinase JAK1 (Homo sapiens) (UniProt P23458); settings: Compound concentration 1000.0 nM
[35] = molecular target: Aurora kinase B (Homo sapiens) (UniProt Q96GD4); settings: Compound concentration 1000.0 nM
[36] = test system: Phosphatidylinositol 4,5-bisphosphate 3-kinase catalytic subunit alpha isoform (Homo sapiens), P42336 [H1047Y]; settings: Compound concentration 1000.0 nM
[37] = test system: Phosphatidylinositol 4,5-bisphosphate 3-kinase catalytic subunit alpha isoform (Homo sapiens), P42336 [M1043I]; settings: Compound concentration 1000.0 nM
[38] = molecular target: Serine/threonine-protein kinase RIO1 (Homo sapiens) (UniProt Q9BRS2); settings: Compound concentration 1000.0 nM
[39] = molecular target: TRAF2 and NCK-interacting protein kinase (Homo sapiens) (UniProt Q9UKE5); settings: Compound concentration 1000.0 nM
TRAF2 and NCK-interacting protein kinase (Homo sapiens), sequence (Q9UKE5 whole entry, looked up): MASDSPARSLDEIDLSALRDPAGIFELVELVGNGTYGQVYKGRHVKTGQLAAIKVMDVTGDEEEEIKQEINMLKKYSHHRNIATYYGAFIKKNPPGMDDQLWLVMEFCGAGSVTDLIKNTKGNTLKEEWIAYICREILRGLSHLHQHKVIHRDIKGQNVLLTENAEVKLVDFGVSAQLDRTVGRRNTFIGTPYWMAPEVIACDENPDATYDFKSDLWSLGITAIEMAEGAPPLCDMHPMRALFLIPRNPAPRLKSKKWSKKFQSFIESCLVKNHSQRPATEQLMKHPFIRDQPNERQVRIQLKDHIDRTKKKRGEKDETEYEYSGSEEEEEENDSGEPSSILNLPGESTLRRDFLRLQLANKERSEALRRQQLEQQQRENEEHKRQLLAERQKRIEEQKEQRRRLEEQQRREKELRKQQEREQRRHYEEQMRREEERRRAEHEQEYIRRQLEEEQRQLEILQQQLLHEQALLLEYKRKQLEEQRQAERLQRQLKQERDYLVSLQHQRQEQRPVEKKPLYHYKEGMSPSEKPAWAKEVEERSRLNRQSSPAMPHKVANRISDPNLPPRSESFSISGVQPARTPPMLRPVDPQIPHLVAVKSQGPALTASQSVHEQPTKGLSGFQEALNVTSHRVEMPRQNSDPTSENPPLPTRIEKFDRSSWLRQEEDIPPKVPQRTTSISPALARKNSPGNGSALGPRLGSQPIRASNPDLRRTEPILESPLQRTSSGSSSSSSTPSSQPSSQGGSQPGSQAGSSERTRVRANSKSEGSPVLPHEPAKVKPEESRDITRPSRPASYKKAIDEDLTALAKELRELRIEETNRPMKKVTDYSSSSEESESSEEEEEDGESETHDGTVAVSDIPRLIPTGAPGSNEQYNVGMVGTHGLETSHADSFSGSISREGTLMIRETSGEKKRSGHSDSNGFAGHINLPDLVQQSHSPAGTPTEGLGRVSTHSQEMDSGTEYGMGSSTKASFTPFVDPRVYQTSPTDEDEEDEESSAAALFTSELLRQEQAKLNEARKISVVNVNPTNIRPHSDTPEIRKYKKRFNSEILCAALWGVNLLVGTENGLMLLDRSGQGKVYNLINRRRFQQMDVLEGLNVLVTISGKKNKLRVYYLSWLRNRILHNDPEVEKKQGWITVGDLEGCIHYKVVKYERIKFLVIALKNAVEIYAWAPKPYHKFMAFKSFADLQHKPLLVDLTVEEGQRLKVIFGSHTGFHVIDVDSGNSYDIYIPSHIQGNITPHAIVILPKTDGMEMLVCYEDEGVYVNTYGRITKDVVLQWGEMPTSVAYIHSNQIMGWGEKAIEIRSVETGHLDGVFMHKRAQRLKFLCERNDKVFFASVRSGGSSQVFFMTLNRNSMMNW

[40] = molecular target: Phosphatidylinositol 5-phosphate 4-kinase type-2 gamma (Homo sapiens) (UniProt Q8TBX8); settings: Compound concentration 1000.0 nM
[41] = test system: Phosphatidylinositol 4,5-bisphosphate 3-kinase catalytic subunit alpha isoform (Homo sapiens), P42336 [E542K]; settings: Compound concentration 1000.0 nM
[42] = molecular target: Mitogen-activated protein kinase kinase kinase kinase 3 (Homo sapiens) (UniProt Q8IVH8); settings: Compound concentration 1000.0 nM
[43] = molecular target: Non-receptor tyrosine-protein kinase TNK1 (Homo sapiens) (UniProt Q13470); settings: Compound concentration 1000.0 nM
[44] = molecular target: MAP kinase-interacting serine/threonine-protein kinase 1 (Homo sapiens) (UniProt Q9BUB5); settings: Compound concentration 1000.0 nM

Ephrin type-A receptor 8 (Homo sapiens), sequence (P29322 whole entry): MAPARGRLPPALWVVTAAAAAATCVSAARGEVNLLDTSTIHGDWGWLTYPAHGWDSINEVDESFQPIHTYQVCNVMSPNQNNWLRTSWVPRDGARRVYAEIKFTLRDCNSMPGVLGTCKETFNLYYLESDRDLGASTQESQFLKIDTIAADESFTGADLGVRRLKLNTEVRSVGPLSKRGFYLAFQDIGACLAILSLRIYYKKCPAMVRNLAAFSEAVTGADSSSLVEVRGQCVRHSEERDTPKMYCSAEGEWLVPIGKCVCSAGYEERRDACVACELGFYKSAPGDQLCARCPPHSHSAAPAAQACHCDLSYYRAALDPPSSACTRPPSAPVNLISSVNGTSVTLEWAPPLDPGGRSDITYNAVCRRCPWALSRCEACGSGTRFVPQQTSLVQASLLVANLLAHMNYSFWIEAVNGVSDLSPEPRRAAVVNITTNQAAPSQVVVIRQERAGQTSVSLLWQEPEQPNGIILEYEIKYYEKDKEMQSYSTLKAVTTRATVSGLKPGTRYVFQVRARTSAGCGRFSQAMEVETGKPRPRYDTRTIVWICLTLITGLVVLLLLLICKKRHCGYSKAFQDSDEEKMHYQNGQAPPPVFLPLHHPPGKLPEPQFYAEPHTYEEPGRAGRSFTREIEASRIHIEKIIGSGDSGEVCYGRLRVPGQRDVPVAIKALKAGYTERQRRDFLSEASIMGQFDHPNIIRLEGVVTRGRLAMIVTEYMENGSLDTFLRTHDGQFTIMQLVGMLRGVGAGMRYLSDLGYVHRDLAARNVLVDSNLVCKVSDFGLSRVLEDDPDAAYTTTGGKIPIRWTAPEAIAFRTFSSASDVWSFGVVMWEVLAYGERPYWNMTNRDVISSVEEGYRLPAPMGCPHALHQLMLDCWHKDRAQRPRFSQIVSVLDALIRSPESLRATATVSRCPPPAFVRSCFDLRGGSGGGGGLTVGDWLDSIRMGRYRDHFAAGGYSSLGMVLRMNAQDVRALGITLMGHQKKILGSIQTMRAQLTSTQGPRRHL

CO[C@@H](C)c1c(Nc2ccc([C@@H](N(C)C(=O)C3CCS(=O)(=O)CC3)C(F)(F)F)cc2)cnc2cc(Cl)nn12 [NVS-MALT1-C]
inactive: residual activity [1] 91% | residual activity [2] 100% | residual activity [3] 89% | residual activity [4] 100% | residual activity [5] 92% | residual activity [6] 100% | residual activity [7] 87% | residual activity [8] 93% | residual activity [9] 89% | residual activity [10] 83% | residual activity [11] 78% | residual activity [12] 98% | residual activity [13] 100% | residual activity [14] 96% | residual activity [15] 99% | residual activity [16] 85% | residual activity [17] 90% | residual activity [18] 65% | residual activity [19] 72% | residual activity [20] 79% | inhibition [21] -3.07% | residual activity [22] 91% | residual activity [23] 100% | residual activity [24] 100% | inhibition [25] -8.46% | residual activity [26] 69% | residual activity [27] 90% | residual activity [28] 84% | residual activity [29] 99% | residual activity [30] 78% | residual activity [31] 87% | residual activity [32] 90% | residual activity [33] 100% | residual activity [34] 90% | residual activity [35] 74% | residual activity [36] 52% | residual activity [37] 100% | residual activity [38] 91% | residual activity [39] 100% | residual activity [40] 58% | residual activity [41] 78% | residual activity [42] 94% | residual activity [43] 87% | residual activity [44] 100%

CO[C@@H](C)c1c(Nc2ccc([C@H](N(C)C(=O)C3CCS(=O)(=O)CC3)C(F)(F)F)cc2)cnc2cc(Cl)nn12 [NVS-MALT1]
inactive: residual activity [1] 91% | residual activity [2] 100% | residual activity [3] 81% | residual activity [4] 100% | residual activity [5] 94% | residual activity [6] 100% | residual activity [7] 90% | residual activity [8] 98% | residual activity [9] 76% | residual activity [10] 81% | residual activity [11] 68% | residual activity [12] 100% | residual activity [13] 100% | residual activity [14] 92% | residual activity [15] 93% | residual activity [16] 94% | residual activity [17] 87% | residual activity [18] 54% | residual activity [19] 65% | residual activity [20] 81% | inhibition [21] -2.45% | residual activity [22] 92% | residual activity [23] 100% | residual activity [24] 100% | inhibition [25] 3.84% | residual activity [26] 86% | residual activity [27] 85% | residual activity [28] 91% | residual activity [29] 85% | residual activity [30] 100% | residual activity [31] 84% | residual activity [32] 88% | residual activity [33] 100% | residual activity [34] 91% | residual activity [35] 91% | residual activity [36] 62% | residual activity [37] 100% | residual activity [38] 85% | residual activity [39] 100% | residual activity [40] 91% | residual activity [41] 71% | residual activity [42] 99% | residual activity [43] 100% | residual activity [44] 100%
